As usually defined, the pIC50 is −log10 of the IC50, conventionally taken in molar units.

In patent US20250382305A1 (PTC THERAPEUTICS, INC., priority 2022, published 2025) one finds IC50 data, which are given here for 29 compounds.

The subject of experiment [1] is Total ATXN3 (tATXN3) protein. Put plainly: Endogenous Total ATXN3 (tATXN3) Protein Assay (MSD immunoassay of cell lysates). Particulars: average IC50, total ATXN3 protein in cell lysate after 48 h with compound (Table 1). The class given is cell-based. Summed up: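 Cells in DMEM/10% FBS were plated at 10,000 per well onto 7-point, 3.16-fold compound dilutions in duplicate for 48 h at 37° C, then lysed. Total ATXN3 in lysates was measured by MSD sandwich immunoassay: mouse anti-ATXN3 capture, rabbit anti-ATXN3 detection, SULFO-TAG anti-rabbit. Average IC50 was reported in star bins.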

The test system of experiment [2] is ATXN3 pre-mRNA. Put plainly: RT-qPCR Assay to Quantify Exon 4 Skipping in ATXN3 pre-mRNA in Cells. Particulars: percent exon 4 skipping in ATXN3 pre-mRNA, RT-qPCR of cell lysates; average IC50. The class given is cell-based. The essentials:
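Cells plated at 10,000/well onto a 7-point, 3.16-fold DMSO dilution series (duplicates), incubated 24 h at 37 °C, then lysed. Exon 4 skipping measured by one-step RT-qPCR (48 °C RT, 40 cycles); IC50 interpolated from dose-response fit of percent skipping.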
(Quantitative PCR measures a nucleic acid by following its amplification.)

pIC50: −log10 of the molar value.

With “2-((1R,6S)-6-amino-2,2-difluorocyclohexyl)-3-bromo-N-(but-2-yn-1-yl)-5-chlorothieno[3,2-b]pyridin-7-amine and 2-((1S,6R)-6-amino-2,2-difluorocyclohexyl)-3-bromo-N-(but-2-yn-1-yl)-5-chlorothieno[3,2-b]pyridin-7-amine [Compound 370]”, the negative logarithm of the IC50 (pIC50) in experiment [1] and in experiment [2] was 6.52 to 7.52 throughout.
As for `CC#CCNc1cc(Cl)nc2c(Br)c([C@H]3CCCC[C@@H]3N)sc12` [Compound 301, 2-((1S,2S)-2-aminocyclohexyl)-3-bromo-N-(but-2-yn-1-yl)-5-chlorothieno[3,2-b]pyridin-7-amine], the pIC50 in experiment [1] and in experiment [2] was 6.52 to 7.52 each time.
Turning to `N[C@@H]1CCCC[C@H]1c1sc2c(NCc3ccco3)nc(Cl)nc2c1Br` [Compound 67, 6-((1R,2R)-2-aminocyclohexyl)-7-bromo-2-chloro-N-(furan-2-ylmethyl)thieno[3,2-d]pyrimidin-4-amine], the pIC50 in experiment [1] and in experiment [2] was 6.00 to 6.52 throughout.
For `N[C@@H]1CCCO[C@H]1c1sc2c(NCc3ccccc3)cc(Cl)nc2c1I` [Compound 132, 2-((2R,3R)-3-aminotetrahydro-2H-pyran-2-yl)-N-benzyl-5-chloro-3-iodothieno[3,2-b]pyridin-7-amine], the pIC50 was 6.00 to 6.52 in experiment [1] and less than 6.00 in experiment [2].
On to `N[C@@H]1CC=CC[C@H]1c1sc2c(NCc3ccncc3)cc(Cl)nc2c1Br` [Compound 373, 2-((1R,6R)-6-aminocyclohex-3-en-1-yl)-3-bromo-5-chloro-N-(pyridin-4-ylmethyl)thieno[3,2-b]pyridin-7-amine], for which the pIC50 in experiment [1] and in experiment [2] was 6.52 to 7.52 each time.
Turning to `N[C@H]1CC=CC[C@@H]1c1c(I)c2nc(Cl)cc(NCc3ccccc3)c2n1C(F)F` [Compound 352, 2-((1S,6S)-6-aminocyclohex-3-en-1-yl)-N-benzyl-5-chloro-1-(difluoromethyl)-3-iodo-1H-pyrrolo[3,2-b]pyridin-7-amine], the pIC50 in experiment [1] and in experiment [2] was 6.52 to 7.52 in each case.
As to `N[C@H]1CCCO[C@@H]1c1c(I)c2nc(Cl)nc(NCc3ccco3)c2n1C(F)F` [Compound 225, 6-((2S,3S)-3-aminotetrahydro-2H-pyran-2-yl)-2-chloro-5-(difluoromethyl)-N-(furan-2-ylmethyl)-7-iodo-5H-pyrrolo[3,2-d]pyrimidin-4-amine], the pIC50 in experiment [1] and in experiment [2] was not below 7.52 each time.
For the compound `CC#CCNc1cc(Cl)nc2c(I)c([C@H]3CC=CC[C@@H]3N)sc12` [Compound 202, 2-((1S,6S)-6-aminocyclohex-3-en-1-yl)-N-(but-2-yn-1-yl)-5-chloro-3-iodothieno[3,2-b]pyridin-7-amine], the pIC50 in experiment [1] and in experiment [2] was not below 7.52 in each case.
`N[C@@H]1CCC[C@H]1c1sc2c(NCc3ccco3)cc(Cl)nc2c1Br` [Compound 155, 2-((1R,2R)-2-aminocyclopentyl)-3-bromo-5-chloro-N-(furan-2-ylmethyl)thieno[3,2-b]pyridin-7-amine]: the pIC50 was less than 6.00 in experiment [1] and 6.00 to 6.52 in experiment [2].
The matching figures for `N[C@H]1CCC[C@]1(F)c1sc2c(NCc3ccco3)cc(Cl)nc2c1Cl` [Compound 121, 2-((1R,2S)-2-amino-1-fluorocyclopentyl)-3,5-dichloro-N-(furan-2-ylmethyl)thieno[3,2-b]pyridin-7-amine]: less than 6.00 and less than 6.00.
As for `N[C@@H]1CCCC[C@@H]1c1sc2c(NCc3cccs3)cc(Cl)nc2c1Cl` [Compound 14, 2-((1S,2R)-2-aminocyclohexyl)-3,5-dichloro-N-(thiophen-2-ylmethyl)thieno[3,2-b]pyridin-7-amine], the pIC50 in experiment [1] and in experiment [2] was less than 6.00 in each case.
In the case of `N[C@@H]1CCCCCC[C@H]1c1sc2c(NCc3cccs3)cc(Cl)nc2c1Br` [Compound 100, 2-((1R,2R)-2-aminocyclooctyl)-3-bromo-5-chloro-N-(thiophen-2-ylmethyl)thieno[3,2-b]pyridin-7-amine], the pIC50 in experiment [1] and in experiment [2] was less than 6.00 in each case.
As for `N[C@H]1CCCC[C@@H]1c1sc2c(NCc3cccs3)cc(Cl)nc2c1-c1ccccc1` [Compound 129], the pIC50 in experiment [1] was 6.00 to 6.52; in experiment [2], 6.52 to 7.52.
The matching figures for `[2H]C1=C([2H])C([2H])([2H])[C@H](c2sc3c(NCc4ccco4)cc(Cl)nc3c2C)[C@@H](N)C1([2H])[2H]` [Compound 212, 2-((1S,6S)-6-aminocyclohex-3-en-1-yl-2,2,3,4,5,5-d6)-5-chloro-N-(furan-2-ylmethyl)-3-methylthieno[3,2-b]pyridin-7-amine]: not below 7.52 and not below 7.52.
The matching figures for `N[C@@H]1CC=CC[C@H]1c1sc2c(NCc3ccccc3)nc(Cl)nc2c1I` [Compound 414, 6-((1R,6R)-6-aminocyclohex-3-en-1-yl)-N-benzyl-2-chloro-7-iodothieno[3,2-d]pyrimidin-4-amine]: 6.00 to 6.52 and 6.52 to 7.52.
The matching figures for `N[C@@H]1CC=CC[C@H]1c1sc2c(NCc3ccccc3)cc(Cl)nc2c1Cl` [Compound 404, 2-((1R,6R)-6-aminocyclohex-3-en-1-yl)-N-benzyl-3,5-dichlorothieno[3,2-b]pyridin-7-amine]: 6.52 to 7.52 and 6.52 to 7.52.
On to `COc1ncccc1C#Cc1c([C@H]2CC=CC[C@@H]2N)sc2c(NCc3cccs3)cc(Cl)nc12` [Compound 394, 2-((1S,6S)-6-aminocyclohex-3-en-1-yl)-5-chloro-3-((2-methoxypyridin-3-yl)ethynyl)-N-(thiophen-2-ylmethyl)thieno[3,2-b]pyridin-7-amine], for which the pIC50 in experiment [1] and in experiment [2] was 6.00 to 6.52 in each case.
As for `N[C@H]1CCCO[C@H]1c1sc2c(NCc3cccs3)cc(Cl)nc2c1Cl` [Compound 19, 2-((2R,3S)-3-aminotetrahydro-2H-pyran-2-yl)-3,5-dichloro-N-(thiophen-2-ylmethyl)thieno[3,2-b]pyridin-7-amine], the pIC50 in experiment [1] and in experiment [2] was 6.52 to 7.52 in each case.
On to `N[C@H]1CCC[C@@H]1c1sc2c(NCc3ccccc3)cc(Cl)nc2c1Br` [Compound 166, 2-((1S,2S)-2-aminocyclopentyl)-N-benzyl-3-bromo-5-chlorothieno[3,2-b]pyridin-7-amine], for which the negative logarithm of the IC50 (pIC50) in experiment [1] and in experiment [2] was 6.52 to 7.52 each time.
In the case of `[2H]C1=C([2H])C([2H])([2H])[C@H](c2sc3c(NCc4cccs4)cc(Cl)nc3c2C)[C@@H](N)C1([2H])[2H]` [Compound 261, 2-((1S,6S)-6-aminocyclohex-3-en-1-yl-2,2,3,4,5,5-d6)-5-chloro-3-methyl-N-(thiophen-2-ylmethyl)thieno[3,2-b]pyridin-7-amine], the pIC50 in experiment [1] and in experiment [2] was 6.52 to 7.52 throughout.
As to `N[C@H]1CC=CC[C@@H]1c1sc2c(NCc3ccccc3)cc(Cl)nc2c1Cl` [Compound 207, 2-((1S,6S)-6-aminocyclohex-3-en-1-yl)-N-benzyl-3,5-dichlorothieno[3,2-b]pyridin-7-amine], the pIC50 in experiment [1] and in experiment [2] was not below 7.52 in each case.
As for `Cc1c([C@H]2CC=CC[C@@H]2N)sc2c(NCc3ccncc3)nc(Cl)nc12` [Compound 234, 6-((1S,6S)-6-aminocyclohex-3-en-1-yl)-2-chloro-7-methyl-N-(pyridin-4-ylmethyl)thieno[3,2-d]pyrimidin-4-amine], the pIC50 in experiment [1] and in experiment [2] was not below 7.52 throughout.
With `N[C@H]1CCCO[C@@H]1c1c(Cl)c2nc(Cl)nc(NCc3cccs3)c2n1C(F)F` [Compound 305, 6-((2S,3S)-3-aminotetrahydro-2H-pyran-2-yl)-2,7-dichloro-5-(difluoromethyl)-N-(thiophen-2-ylmethyl)-5H-pyrrolo[3,2-d]pyrimidin-4-amine], the pIC50 in experiment [1] and in experiment [2] was 6.52 to 7.52 each time.
Consider `N[C@H]1CCCCC[C@@H]1c1cc2nc(Cl)cc(NCc3cccs3)c2s1` [Compound 90, 2-((1S,2S)-2-aminocycloheptyl)-5-chloro-N-(thiophen-2-ylmethyl)thieno[3,2-b]pyridin-7-amine], for which the pIC50 in experiment [1] and in experiment [2] was 6.00 to 6.52 in each case.
For the compound `N[C@H]1CCCCC[C@H]1c1sc2c(NCc3cccs3)cc(Cl)nc2c1Cl` [Compound 77, 2-((1R,2S)-2-aminocycloheptyl)-3,5-dichloro-N-(thiophen-2-ylmethyl)thieno[3,2-b]pyridin-7-amine], the figures for the pIC50 in experiment [1] and in experiment [2] were less than 6.00 and 6.00 to 6.52, respectively.
The matching figures for `N[C@H]1CCCC(F)(F)[C@@H]1c1sc2c(NCc3cccs3)cc(Cl)nc2c1Cl` [Compound 291, 2-((1R,6S)-6-amino-2,2-difluorocyclohexyl)-3,5-dichloro-N-(thiophen-2-ylmethyl)thieno[3,2-b]pyridin-7-amine]: 6.52 to 7.52 and 6.52 to 7.52.
The matching figures for `N[C@@H]1CCCC[C@H]1c1cc2nc(Cl)cc(NCc3cccs3)c2s1` [Compound 23, 2-((1R,2R)-2-aminocyclohexyl)-5-chloro-N-(thiophen-2-ylmethyl)thieno[3,2-b]pyridin-7-amine]: less than 6.00 and less than 6.00.
The matching figures for `Cc1c([C@@H]2OCCC[C@H]2N)sc2c(NCc3ccco3)nc(Cl)nc12` [Compound 61, 6-((2R,3R)-3-aminotetrahydro-2H-pyran-2-yl)-2-chloro-N-(furan-2-ylmethyl)-7-methylthieno[3,2-d]pyrimidin-4-amine]: less than 6.00 and less than 6.00.
With `C=Cc1c([C@H]2CC=CC[C@@H]2N)sc2c(NCc3cccs3)cc(Cl)nc12` [Compound 267, 2-((1S,6S)-6-aminocyclohex-3-en-1-yl)-5-chloro-N-(thiophen-2-ylmethyl)-3-vinylthieno[3,2-b]pyridin-7-amine], the pIC50 in experiment [1] and in experiment [2] was 6.52 to 7.52 in each case.
